Test results: PMC7327080, “A novel 4-aminoquinazoline derivative, DHW-208, suppresses the growth of human breast cancer cells by targeting the PI3K/AKT/mTOR pathway” (Cell Death & Disease, 2020)

Biological target: mTOR (Homo sapiens, UniProt P42345)
Assay: in vitro mTOR kinase activity assay (inhibition curve, Fig. 5e)
Type: biochemical

- IC50: 3 nM
Compound: COc1ncc(-c2ccc3ncnc(Nc4cnn(CCO)c4)c3c2)cc1NS(=O)(=O)c1ccc(F)cc1F [DHW-208, 2,4-difluoro-N-(5-(4-((1-(2-hydroxyethyl)-1H-pyrazol-4-yl)amino)quinazolin-6-yl)-2-methoxypyridin-3-yl)benzenesulfonamide]
